A value given as a limit tells only on which side of the number the result lay.

For the assay, the target named is T1, APOL1 G1 Protein (Homo sapiens, UniProt O14791, I384M/S342G).
T1 sequence (O14791 28-398 S342G/I384M): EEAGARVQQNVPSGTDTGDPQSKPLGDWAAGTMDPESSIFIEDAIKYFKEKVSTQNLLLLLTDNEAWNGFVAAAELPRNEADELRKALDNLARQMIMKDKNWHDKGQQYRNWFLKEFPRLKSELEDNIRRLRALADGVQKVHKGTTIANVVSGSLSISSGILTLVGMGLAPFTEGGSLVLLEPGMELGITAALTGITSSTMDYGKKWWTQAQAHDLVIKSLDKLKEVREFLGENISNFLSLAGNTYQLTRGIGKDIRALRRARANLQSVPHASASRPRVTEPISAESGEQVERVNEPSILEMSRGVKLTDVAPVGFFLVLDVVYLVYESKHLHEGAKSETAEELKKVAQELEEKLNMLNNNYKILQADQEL
The experiment in a line: Trypanosoma brucei brucei lysis assay using APOL1 recombinant protein (AlamarBlue viability readout). In kind it is cell-based. The following applies: Trypanosoma brucei brucei (Lister 427 VSG 221 bloodstream form) lysis by 0.05 μg/mL recombinant APOL1 G1, 16 hrs. A digest of the protocol: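 T. b. brucei Lister 427 bloodstream form, 120,000 parasites per well in assay medium lacking phenol red and FBS, lysed by recombinant APOL1 variant. Viability by AlamarBlue fluorescence, converted to percent living trypanosomes via a standard curve of seeded parasites relative to untreated wells.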
Background: Alamar Blue is a resazurin reagent that responds to reducing activity.
On to `N#Cc1ccc(-c2[nH]c3ccccc3c2CCC(=O)N[C@@H]2C(=O)NC[C@H]2O)cc1` [Compound 116, 3-[2-(4-cyanophenyl)-1H-indol-3-yl]-N-[(3S,4R)-4-hydroxy-2-oxo-pyrrolidin-3-yl]propanamide], for which the IC50 is less than 250 nM.
Take `O=C(CCc1c(-c2ccc(OC(F)(F)F)cc2)[nH]c2ccccc12)N[C@@H]1C(=O)NC[C@H]1O` [Compound 118]: the half-inhibitory concentration (IC50) is less than 250 nM.
On to `O=C(CCc1c(-c2ccc(Cl)c(F)c2)[nH]c2ccccc12)N[C@@H]1C(=O)NC[C@H]1O` [Compound 120], for which the IC50 is less than 250 nM.
To `COc1ccc(-c2[nH]c3ccccc3c2CCC(=O)N[C@@H]2C(=O)NC[C@H]2O)cc1` [Compound 121] belongs less than 250 nM; to `Cc1ccc(-c2[nH]c3ccccc3c2CCC(=O)N[C@@H]2C(=O)NC[C@H]2O)c(F)c1` [Compound 122], less than 250 nM.
To `O=C(CCc1c(-c2ccc(C(F)(F)F)cc2)[nH]c2ccccc12)N[C@@H]1C(=O)NC[C@H]1O` [Compound 123] belongs less than 250 nM; to `Cc1ccc(-c2[nH]c3ccccc3c2CCC(=O)N[C@@H]2C(=O)NC[C@H]2O)cc1` [Compound 124], less than 250 nM.
As for `Cc1cc(-c2[nH]c3ccccc3c2CCC(=O)N[C@@H]2C(=O)NC[C@H]2O)ccc1F` [Compound 125], the IC50 is less than 250 nM.
Regarding `Cc1ccc(-c2[nH]c3ccccc3c2CCC(=O)N[C@@H]2C(=O)NC[C@H]2O)cc1F` [Compound 126], the IC50 is less than 250 nM.
In the case of `O=C(CCc1c(-c2cc(F)cc(F)c2)[nH]c2ccccc12)N[C@@H]1C(=O)NC[C@H]1O` [Compound 127, 3-[2-(3,5-difluorophenyl)-1H-indol-3-yl]-N-[(3S,4R)-4-hydroxy-2-oxo-pyrrolidin-3-yl]propanamide], the IC50 lay in the range of 250 to 1000 nM.
In the case of `O=C(CCc1c(-c2ccc(Cl)cc2)[nH]c2ccccc12)N[C@@H]1C(=O)NC[C@H]1O` [Compound 128, 3-[2-(4-chlorophenyl)-1H-indol-3-yl]-N-[(3S,4R)-4-hydroxy-2-oxo-pyrrolidin-3-yl]propanamide], the IC50 was less than 250 nM.
Consider `O=C(CCc1c(-c2ccc(F)c(F)c2)[nH]c2ccccc12)N[C@@H]1C(=O)NC[C@H]1O` [Compound 129, 3-[2-(3,4-difluorophenyl)-1H-indol-3-yl]-N-[(3S,4R)-4-hydroxy-2-oxo-pyrrolidin-3-yl]propanamide], for which the IC50 was less than 250 nM.
Regarding `O=C(CCc1c(-c2ccc(C(F)F)cc2)[nH]c2ccccc12)N[C@@H]1C(=O)NC[C@H]1O` [Compound 131, 3-[2-[4-(difluoromethyl)phenyl]-1H-indol-3-yl]-N-[(3S,4R)-4-hydroxy-2-oxo-pyrrolidin-3-yl]propanamide], the IC50 is less than 250 nM.

The term IC50 denotes the midpoint of a concentration-inhibition curve.

Values taken from patent US11618746B2, “Inhibitors of APOL1 and methods of using same” (Vertex Pharmaceuticals Incorporated, priority 2018, dated 2023).
